According to patent EP2014281A1, “Use of inhibitors of sirtuins and/or ampk for the preparation of a medicament for the treatment of polyalanine diseases” (INSTITUT NATIONAL DE LA SANTE ET DE LA RECHERCHE MEDICALE …, priority 2007, dated 2009):

What was measured:
non-transfected cells = assay: Dose-response experiments for cell toxicity; assay type: cell-based; settings: five days, 0.5 µM resveratrol, 2.5 µM sirtinol
Method: (§1) Drug treatment. Resveratrol and Sirtinol were dissolved in DMSO. In the initial cell treatment experiments, we performed dose-response experiments, using non-transfected cells, to define the most appropriate doses to be used for the drugs. […] The drugs or vehicle as a control were applied on transfected cells 24 h post-transfection. Cells (in the 12-well plate) were then incubated for 24 h before analysis using a Leica automated microscope stage.

[1] = test system: COS-7 cells overexpressing GFP-PABPN1 fusion proteins with 0, 10, or 17 Alas; assay: Cell survival by live microscopy of GFP positive cells; assay type: cell-based; settings: day 5; 0.5 µM resveratrol, 2.5 µM sirtinol
Method: (§2) Cell culture and transfection. Twenty-four hours before transfection, COS-7 cells were seeded in Dulbeco's modified Eagle's medium (DMEM) containing 10% fetal calf serum at a concentration of 2 x 10^5 cells per well in 12-well plates suited for the automated live microscopy. The cells were transfected with plasmid DNA (1 µg) pre-complexed with the Plus reagent and diluted in Lipofectamine reagent according to the manufacturer's instructions. To check the protein expression before and after the drug treatment, parallel plates were prepared for Western blotting.
as §1
Assessment of cell survival. Cell survival was assessed using live microscopy as previously described^12. Briefly, 12-well plates containing transfected cells treated or not treated with drugs were placed on a live stage microscope equipped with a digital camera, CO2 incubation chamber, and a motorized X-Y-axis stage and connected to the Openlab software (Improvision). The microscopic robotic stage allows parallel tracking of multiple fields, both within a single well and in multiple wells. […] The system was set to memorize three different fields of cells (from each separate well) and control the stage return to the same position at pre-fixed intervals. The microscope allowed us to return back to the same point and count the same cells in the field. Cell survival was monitored every 24 h for five consecutive days, with Day 1 corresponding to 24 h post-transfection before the drug treatment. On average, 150 cells per field per construct were counted. Cell viability was assayed by analysis of GFP positive cells. The average of cell survival of each group of cells was scored for the three different chosen fields and percent rescue calculated as ((test - control)/control*100). Three independent experiments were performed. ANOVA tests and Tukey's Multiple Comparison Test were used for statistics.

[2] = test system: C. elegans transgenics expressing human PABPN1 with 10 or 13 Alas; assay: Motility drug assay, number of whole body bends; assay type: in vivo; settings: for genetic dependence of the effect on abnormal motility: PABPN1-A13 animals with null mutation of sir-2.1 (ok434), daf-16 (mu86) or aak-2 (ok524); for abnormal motility (frequency of body bends) produced by mutant PABPN1: PABPN1-A13 animals, sirtinol and splitomicin at day 5, resveratrol at day 3 of adulthood; for motility in controls: PABPN1-A10 / control animals
Method: Motility assays. 1-5 day old adult hermaphrodites were laid on confluent OP-50-1. The animals were then scored immediately for whole body bends for a duration of 20 seconds as previously described^23, or photos of the tracks were taken using a 2,5X objective on a Zeiss microscope and their amplitudes measured using the Meta View software. 100 animals were scored per experiment and three independent assays performed. Percent rescue of the body bends phenotype was calculated as ((control - test)/control*100) and percent rescue of the sinusoid wave phenotype as ((test - control)/control*100). ANOVA tests and Tukey's Multiple Comparison Tests were used for statistics.
(§3) Drug assays. Synchronized populations of L1 larvae expressing GFP and PABPN1 with 10 or 13 Alas were obtained by hypochlorite extraction. To test for muscle nuclei loss, animals were grown in 96-well microtiter plates in 50 µl liquid culture medium with sodium butyrate, resveratrol, sirtinol or splitomicin for 65 hours at 20°C, transferred to agarose pads on slides, and scored for cell nuclei loss at 10X-63X using a Zeiss fluorescence microscope (Axioplan Imaging II). 60 worms were scored per point and three independent assays performed. To test for motility, the synchronized L1 larvae were grown on NGM plates containing drugs until they became 1-5 day old adults. Animals were transferred to new plates every other day to keep them separate from progeny, then transferred to confluent OP-50.1 bacteria test plates and assessed for the number of whole body bends as described above (see Motility assays).

[3] = test system: C. elegans transgenics expressing human PABPN1 with 10 or 13 Alas; assay: Muscle nuclei loss (MNL) drug assay in transgenic nematodes, counting GFP positive muscle cell nuclei; assay type: in vivo; settings: for muscle nuclei loss (MNL) in controls: PABPN1-A10 / control animals; for genetic dependence of the effect on MNL: PABPN1-A13 animals with null mutation of sir-2.1 (ok434), daf-16 (mu86) or aak-2 (ok524); for muscle nuclei loss (MNL) caused by PABPN1-A13 expression: PABPN1-A13 animals, 65 hours at 20°C in liquid culture, maximal achievable rescue 28 %
Method: Analysis of muscle cells. Muscle cells in transgenic hermaphrodites were examined for loss of nuclei through counting GFP positive cells. Percent rescue was calculated as ((test - control)/control*100). Muscle cells in transgenic hermaphrodites were examined for PABPN1 expression through fluorescent microscopy. Whole animals were permeabilized and stained with the PABPN1 antiserum VEADa-14 (Centre de Recherche du CHUM, Montreal; 1:50), and fluorescent microscopy was conducted on a Zeiss microscope (Axioplan Imaging II). Observations of the structure of body wall muscles in young adult transgenics after Phalloidin-Rhodamin (FluoProbes) staining were performed as previously described^51. ANOVA tests and Tukey's Multiple Comparison Test were used for statistics.
as §3

[4] = test system: COS-7 cells transfected with normal (10 Alas) and mutant (17 Alas) PABPN1; assay: Histone acetylation analysis by western blot; assay type: cell-based; settings: COS-7 cells expressing normal or mutant PABPN1, 500 µM or 5 mM for the last 24h
Method: as §2
Histone acetylation analysis. COS-7 cells transfected with normal (10 Alas) and mutant (17 Alas) PABPN1 cDNAs were plated for 48h and treated for the last 24h with 500 µM or 5 mM sodium butyrate. Controls included non-butyrate-treated cells. Cells were lysed in 10 mM Tris, 50 mM sodium bisulfite, 1% triton X-100, 10 mM magnesium chloride, 8.6% sucrose, pH 6.5 and a cocktail of proteases inhibitors for 10 min. Proteins were extracted under acidic conditions as described^53. Ten micrograms of whole cell extract were analysed by western blot. […] Signals were quantified using NIH IMAGE 1.62 and t tests used for statistical analysis.

SMILES	cell toxicity (non-transfected cells)	cell survival in cells overexpressing GFP-PABPN1 with 0 and 10 Alas [1]	cell survival in mutant PABPN1-A17 cells [1]	genetic dependence of the effect on abnormal motility [2]	abnormal motility (frequency of body bends) produced by mutant PABPN1 [2]	muscle nuclei loss (MNL) in controls [3]	genetic dependence of the effect on MNL [3]	muscle nuclei loss (MNL) caused by PABPN1-A13 expression [3]	motility in controls [2]	level of acetylation of histone H3 [4]	level of acetylation of histone H4 [4]
Oc1ccc(C=Cc2cc(O)cc(O)c2)cc1 [resveratrol]	did not cause cell toxicity	no effects	slightly decreased cell survival	daf-16 independent and sir-2.1 and aak-2 dependent	enhancement of abnormal motility	no effect in PABPN1-A10 animals	mediated by sir-2.1 and aak-2	enhanced MNL	–	–	–
CC(NC(=O)c1ccccc1/N=C/c1c(O)ccc2ccccc12)c1ccccc1 (stereo not shown) [sirtinol, 2-[(2-Hydroxynaphthalen-1-yl-methylene)amino]-N-(1-phenethyl)benzamide]	–	no effects	strongly enhanced cell survival	dependent on sir-2.1 and daf-16	rescued abnormal motility	–	dependent on sir-2.1, daf-16 but not aak-2	dose-dependent rescue of MNL	no effect detected	–	–
CCCC(=O)[O-].[Na+] [sodium butyrate]	–	–	–	–	–	–	–	strong (the maximal achievable rescue is 28 %) rescue	–	increased	increased
O=C1CCc2c(ccc3ccccc23)O1 [splitomicin, 1,2-Dihydro-3H-naphtho[2,1-b]pyran-3-one]	–	–	–	–	rescued the MNL and abnormal motility	no effect in controls	–	rescued the MNL	no effect in controls	–	–
